Values after ≈ are worked out from the molar mass of the structure shown.
What was measured:
virus HIV (LAV-1-BRU) = assay: microbe, parasite or virus in culture; format: cell-based; conditions: for Cellules infectées densité optique DO 600: control (0 µg/ml) 0.293
Method: (§1) Dans ce qui suit on décrit les résultats sur l'effet cytopathogène et la multiplication du virus HIV dans une lignée cellulaire permissive (cellules lymphoblastoïdes humaines CEM).
(§2) Le test est réalisé sur la lignée lymphoblastoïde CEM clone 13. Dans une microplaque de 96 puits on dépose 25 µl/puit d'une solution de produit à tester ou de tampon phosphate isotonique (TPI) dans le cas des contrôles. Les produits sont étudiés à différentes concentrations (souvent 8), à raison de 4 puits par concentration. On ajoute alors 125 µl d'une suspension de cellules CEM dans le milieu RPMI contenant 10 % de sérum de veau foetal, 40 U/ml de pénicilline, 40 µg/ml de streptomycine et 5 µg/ml de polybrène (3500 cellules par puit) et les microplaques sont incubées une heure à 37°C, sous une atmosphère contenant 5 % de gaz carbonique. L'essai est fait en double: une partie sur cellules infectées, pour la détermination de l'activité antivirale et l'autre partie sur cellules non infectées, pour déterminer la cytotoxité des produits. On infecte la première série avec HIV (100 µl par puit d'une suspension de virus LAV-1-BRU contenant 200-300 TCID50) tandis que l'autre série reçoit 100 µl de milieu RPMI tel que défini précédemment. Après 7 jours d'incubation, 175 µl de surnageant sont prélevés et seront utilisés par la suite pour le dosage de la reverse transcriptase. La viabilité cellulaire est déterminée selon une modification de la technique décrite par R. PAUWELS et coll., J. Virol. Meth., 20, 309-321 (1988).
(§3) Les puits, contenant encore les cellules (infectées ou non infectées), reçoivent 10 µl d'une solution de MTT (méthylthiazoletétrazolium) à 5 mg/ml dans du tampon phosphate isotonique. Pendant une période d'incubation de 4 heures, le MTT est converti en un sel de formazan (bleu) à l'intérieur des cellules vivantes et proportionnellement à leur nombre, alors que rien n'apparaît dans les puits ne contenant plus que des cellules mortes. On ajoute alors 120 µl d'isopropanol (contenant 0,04 mole/l d'acide chlorhydrique) et les microplaques sont agitées jusqu'à la solubilisation du bleu de formazan. […]
(§4) Dans ces conditions les cellules infectées sont lysées à environ 60-70 % par rapport aux cellules non infectées. On établit la concentration du produit qui inhibe l'effet cytopathogène du virus de 50 % (CE50). On détermine également celle qui inhibe de 50 % la croissance des cellules non infectées (CC50). Le rapport entre CC50 et CE50 est défini comme l'indice de sélectivité antivirale i.

[1] = test system: précurseurs erythrocytaires de la moelle osseuse; assay: BFU-E test (bone marrow erythrocyte precursors); format: cell-based, humaine; conditions: 108 µg/ml, human bone marrow
Description: (§5) Enfin, les produits selon l'invention manifestent un intérêt considérable du fait de leur absence de toxicité à des concentrations élevées à l'égard des précurseurs hématopoietiques de la moelle humaine.
(§6) Il est en effet connu que l'un des problèmes majeurs associés au traitement par certains produits de cette classe, est la toxicité sur les précurseurs erythrocytaires et granulocytaires/macrophagiques de la moelle osseuse, qui se traduit du point de vue clinique dans des sévères anémies et leucopénies [D.D. RICHMAN et al., N. Engl. J. Med., 317, 192-197, (1987). R. YARCHOAN et al., Lancet i, 575-580, (1986)]. Cette toxicité peut être mise en évidence au niveau du laboratoire par des tests in vitro, sur des précurseurs erythrocytaires et granulocytaires/macrophagiques de la moelle osseuse (J.P. SOMMADOSSI et R. CARLISLE, Antimicro. Ag. Chemother., 31, 452-454, (1987). L'étude est mise en oeuvre dans les techniques de D. THIERRY et al., Acta Radiol., 24, 521-526, (1985) et D. METCALF, Hematopoietic Colony Stimulating factors, p 88-89, Elsevier (1984).
(§7) Dans le test CFU-G/M, la concentration inhibitrice de 50% de la formation des clones est de 30 µg/ml.

[2] = Cytotoxicity on non-infected CEM cells (MTT viability); format: cell-based, humaines; conditions: human; non-infected CEM cells, 7 days; read-out: CC50 (concentration qui inhibe de 50 % la croissance des cellules non infectées)
Method: as §1, §2, §3, §4

[3] = test system: lignée lymphoblastoïde CEM clone 13, cellules non infectées; assay: as above; format: cell-based, humaines; conditions: 7 days, control (0 µg/ml) 0.954
Method: as §1, §2, §3, §4

[4] = test system: transcriptase inverse du virus HIV; assay: Viral multiplication by reverse transcriptase assay on culture supernatant; format: cell-based; conditions: 0,1 µg/cm³
Method: as §2, with “(1988). […]” for “(1988).”

[5] = test system: précurseurs granulocytaires/macrophagiques de la moelle osseuse; assay: CFU-G/M test (bone marrow granulocyte/macrophage precursors, clone formation); format: cell-based, humaine; conditions: CFU-GM, human bone marrow, read-out: concentration inhibitrice de 50% de la formation des clones
Description: as §5, §6, §7

EC50 (virus HIV (LAV-1-BRU); Human immunodeficiency virus 1, CCRF-CEM, 168 h, infected CEM cells, 7 days, read-out: CE50 (concentration qui inhibe l'effet cytopathogène du virus de 50 %)): 0.01 µg/mL (≈ 0.0354 µM)
IC50 [5]: 30 µg/mL (≈ 106 µM)
SMILES: Cc1cn([C@H]2C[C@H](N=[N+]=[N-])[C@@H](CO)O2)c(=O)n(N)c1=O [Exemple 1, azido-3′ amino-3 désoxy-3′ thymidine]
Cellules infectées densité optique DO 600 (virus HIV (LAV-1-BRU); 0.0003 µg/ml, 7 days): 0.311
Cellules infectées densité optique DO 600 (virus HIV (LAV-1-BRU); 0.001 µg/ml, 7 days): 0.359
Cellules infectées densité optique DO 600 (virus HIV (LAV-1-BRU); 0.003 µg/ml, 7 days): 0.456
Cellules infectées densité optique DO 600 (virus HIV (LAV-1-BRU); 0.01 µg/ml, 7 days): 0.565
Cellules infectées densité optique DO 600 (virus HIV (LAV-1-BRU); 0.03 µg/ml, 7 days): 0.577
Cellules infectées densité optique DO 600 (virus HIV (LAV-1-BRU); 0.1 µg/ml, 7 days): 0.596
Cellules infectées densité optique DO 600 (virus HIV (LAV-1-BRU); 0.3 µg/ml, 7 days): 0.838
Cellules infectées densité optique DO 600 (virus HIV (LAV-1-BRU); 1 µg/ml, 7 days): 0.926
Cellules infectées densité optique DO 600 (virus HIV (LAV-1-BRU); 3 µg/ml, 7 days): 0.865
Cellules infectées densité optique DO 600 (virus HIV (LAV-1-BRU); 10 µg/ml, 7 days): 0.441
Cellules infectées densité optique DO 600 (virus HIV (LAV-1-BRU); 30 µg/ml, 7 days): 0.007
indice de sélectivité i = CC50/CE50 (virus HIV (LAV-1-BRU); human, cem cells, 168 h): 1000
toxicité dans le test BFU-E [1]: dépourvu de toxicité
CC50 at 168 h [2]: 10 µg/mL (≈ 35.4 µM)
cellules non infectées densité optique DO 600 ([3]; 0.0003 µg/ml): 0.935
cellules non infectées densité optique DO 600 ([3]; 0.001 µg/ml): 0.888
cellules non infectées densité optique DO 600 ([3]; 0.003 µg/ml): 0.882
cellules non infectées densité optique DO 600 ([3]; 0.01 µg/ml): 0.884
cellules non infectées densité optique DO 600 ([3]; 0.03 µg/ml): 0.901
cellules non infectées densité optique DO 600 ([3]; 0.1 µg/ml): 0.928
cellules non infectées densité optique DO 600 ([3]; 0.3 µg/ml): 0.931
cellules non infectées densité optique DO 600 ([3]; 1 µg/ml): 0.909
cellules non infectées densité optique DO 600 ([3]; 3 µg/ml): 0.892
cellules non infectées densité optique DO 600 ([3]; 10 µg/ml): 0.368
cellules non infectées densité optique DO 600 ([3]; 30 µg/ml): 0.004
activité de la transcriptase inverse, coups par minute (cpm) ([4]; untreated infected cultures 204363 cpm): 44558 cpm
inhibition at 0.1 µg/mL ([4]; Human immunodeficiency virus 1, CCRF-CEM, 168 h, culture supernatant after 7 days, read-out: % d'inhibition (reverse transcriptase du virus HIV)): 80%

From EP0437382A1, “Thimidin derivatives, their preparation and compositions containing them” (RHONE-POULENC SANTE, priority 1990, dated 1991)
